From US20240254066A1, “RESCORCINOLS, METHODS FOR THEIR MANUFACTURE, AND USES THEREOF” (GW Research Limited, priority 2021, published 2024)

Test system: tonic hind limb extensor convulsions (mouse model of generalised seizure)
Test: mini-MEST (maximal electroshock seizure threshold) test in the mouse
Settings: for change in vivo at 5 mg/kg / change in vivo at 50 mg/kg: Mus musculus, ip, change in CC50; for change in vivo at 5 mg/kg: 0.25 h, read-out: % change from vehicle, 5 mg/kg i.p., 15 min post dose; for change in vivo at 50 mg/kg: 0.5 h, read-out: % change from vehicle, 50 mg/kg i.p., 30 min post dose
Procedure: The efficacy of novel resorcinols 2, 3, 5, 8, 10, 15, 16, 17, 18, 19, 41 45, 46, 53, 56 and 58 were tested in a novel mouse model of generalised seizure, the mini-MEST (maximal electroshock seizure threshold) test, which uses lower n numbers than typically used.
The maximal electroshock seizure threshold (MEST) test is widely utilized preclinically to evaluate pro- or anti-convulsant properties of test compounds (Loscher et al., 1991).
In the MEST test the ability of a drug to alter the seizure threshold current required to induce hind limb tonic extensor convulsions is measured according to an “up and down” method of shock titration (Kimball et al., 1957). An increase in seizure threshold is indicative of anti-convulsant effect.
The ability of a test compound to alter the stimulus intensity, expressed as current (mA), required to induce the presence of tonic hind limb extensor convulsions, is assessed in the MEST.
Naïve mice were acclimatised to the procedure room in their home cages for up to 7 days, with food and water available ad libitum.
All animals were weighed at the beginning of the study and randomly assigned to treatment groups based on a mean distribution of body weight across groups.
The first animal within a treatment group was given a shock at the expected or estimated CC50 current. For subsequent animals, the current was lowered or raised depending on the convulsions outcome from the preceding animal in log scale intervals.
Data generated from each treatment group were used to calculate the CC50±SEM values for the treatment group.
Vehicle: (5% ethanol, 10% solutol in 85% Saline) was prepared as follows: 1 mL of ethanol, 2 mL of solutol were warmed to 60° C., in 17 mL of saline (1:2:17).
The test compounds used were 2, 3, 5, 8, 10, 15, 16, 17, 18, 19, 41, 45, 46, 53, 56 and 58 Test compounds were administered at 5-50 mg/kg (i.p.) in a 1:2:17 ethanol:solutol:saline formulation.
Test compound effects were also calculated as percentage change in CC50 from the vehicle control group.
Significant difference between drug-treated animals and controls were assessed according to Litchfield and Wilcoxon (1949).

[1] = 5 mg/kg i.p., test 15 min post dose
[2] = 50 mg/kg i.p., test 30 min post dose

SMILES	CC50 +/− SEM [1]	CC50 +/− SEM [2]	change in vivo at 5 mg/kg [%]	change in vivo at 50 mg/kg [%]
C=C(C)[C@@H]1C[C@H](O)C(C)=C[C@H]1c1c(O)cc(Cl)cc1O [Compound 2, (1′R,2′R,4′S)-4-Chloro-5′-methyl-2′-(prop-1-en-2-yl)-1′,2′,3′,4′-tetrahydro-[1,1′-biphenyl]-2,4′,6-triol]	28.3 ± 1.1 mA	>114 mA	7	> 330
C=C(C)[C@@H]1C[C@H](O)C(C)=C[C@H]1c1c(O)cc(CC)cc1O [Compound 3, (1″R,2′R,4′S)-4-Ethyl-5′-methyl-2″-(prop-1-en-2-yl)-1′,2″,3″,4′-tetrahydro-[1,1″-biphenyl]-2,4′,6-triol]	44.2 +/− 1.4 mA	59.2 +/− 1.4 mA	77	137
C=C(C)[C@@H]1C[C@H](O)C(C)=C[C@H]1c1c(O)cc(CCOC)cc1O [Compound 5, (1′R,2′R,4′S)-4-(2-Methoxyethyl)-5′-methyl-2′-(prop-1-en-2-yl)-1″,2′,3′,4′-tetrahydro-[1,1′-biphenyl]-2,4′,6-triol]	23.5 +/− 0.3 mA	50.5 +/− 0.7 mA	0	115
C=C(C)[C@@H]1C[C@H](O)C(C)=C[C@H]1c1c(O)cc(/C=C/C)cc1O [Compound 7, (1′R,2′R,4′S)-5′-Methyl-4-((E)-prop-1-en-1-yl)-2′-(prop-1-en-2-yl)-1′,2′,3′,4′-tetrahydro-[1,1′-biphenyl]-2,4′,6-triol]	29.0 ± 1.5 mA	75.0 ± 3.4 mA	-2	153
C=C(C)[C@@H]1C[C@H](O)C(C)=C[C@H]1c1c(O)cc(C2CC2)cc1O [Compound 8, (1′R,2′R,4′S)-4-Cyclopropyl-5′-methyl-2′-(prop-1-en-2-yl)-1′,2′,3′,4′-tetrahydro-[1,1′-biphenyl]-2,4″,6-triol]	24.5 ± 0.9 mA	58.2 ± 2.0 mA	9	159
C=C(C)[C@@H]1C[C@H](O)C(C)=C[C@H]1c1c(O)cc(C2=CCCC2)cc1O [Compound 9, (1′R,2′R,4′S)-4-(Cyclopent-1-en-1-yl)-5′-methyl-2′-(prop-1-en-2-yl)-1′,2′,3′,4′-tetrahydro-[1,1′-biphenyl]-2,4′,6-triol]	–	>131.0 mA	–	> 344
C=C(C)[C@@H]1C[C@H](O)C(C)=C[C@H]1c1c(O)cc(-c2cnn(C)c2)cc1O [Compound 10, (1′R,2′R,4′S)-5′-Methyl-4-(1-methyl-1H-pyrazol-4-yl)-2′-(prop-1-en-2-yl)-1′,2″,3′,4′-tetrahydro-[1,1′-biphenyl]-2,4′,6-triol]	28.3 +/− 1.1 mA	31.0 +/− 0.2 mA	21	32
C=C(C)[C@@H]1C[C@H](O)C(C)=C[C@H]1c1c(O)cc(-c2cccc(OC)c2)cc1O [Compound 15, (1R,2R,4S)-3″-Methoxy-5-methyl-2-(prop-1-en-2-yl)-1,2,3,4-tetrahydro-[1,1′:4′,1″-terphenyl]-2′,4,6′-triol]	–	>114 mA	–	> 407
C=C(C)[C@@H]1C[C@H](O)C(C)=C[C@H]1c1c(O)cc(-c2ccnc(OC)c2)cc1O [Compound 16, (1′R,2′R,4′S)-4-(2-Methoxypyridin-4-yl)-5′-methyl-2′-(prop-1-en-2-yl)-1″,2′,3′,4′-tetrahydro-[1,1′-biphenyl]-2,4′,6-triol]	–	70.5 +/− 1.3 mA	–	213
C=C(C)[C@@H]1C[C@H](O)C(C)=C[C@H]1c1c(O)cc(-c2ccc(OC)nc2)cc1O [Compound 17, (1′R,2′R,4′S)-4-(6-Methoxypyridin-3-yl)-5′-methyl-2′-(prop-1-en-2-yl)-1′,2′,3′,4′-tetrahydro-[1,1′-biphenyl]-2,4′,6-triol]	39.0 +/− 0.2 mA	>114 mA	66	> 385
C=C(C)[C@@H]1C[C@H](O)C(C)=C[C@H]1c1c(O)cc(-c2ccc(F)cc2)cc1O [Compound 18, (1R,2R,4S)-4″-fluoro-5-methyl-2-(prop-1-en-2-yl)-1,2,3,4-tetrahydro-[1,1′:4′,1″-terphenyl]-2′,4,6′-triol]	31.0 ± 4.5 mA	61.5 ± 1.3 mA	38	178
C=C(C)[C@@H]1C[C@H](O)C(C)=C[C@H]1c1c(O)cc(-c2ccc(OC(F)F)nc2)cc1O [Compound 19, (1′R,2′R,4′S)-4-(6-(Difluoromethoxy)pyridin-3-yl)-5′-methyl-2′-(prop-1-en-2-yl)-1′,2″,3′,4′-tetrahydro-[1,1′-biphenyl]-2,4′,6-triol]	38.0 ± 1.9 mA	97.5 ± 1.3 mA	43	268
C=C(C)[C@@H]1C[C@H](O)C(C)=C[C@H]1c1c(O)cc(C2=CCOCC2)cc1O [Compound 26, (1′R,2′R,4′S)-4-(3,6-Dihydro-2H-pyran-4-yl)-5′-methyl-2′-(prop-1-en-2-yl)-1′,2″,3′,4′-tetrahydro-[1,1′-biphenyl]-2,4′,6-triol]	31.0 ± 0.2 mA	50.0 ± 2.6 mA	24	100
C=C(C)[C@@H]1C[C@H](O)C(C)=C[C@H]1c1c(O)cc(-c2ccccc2OC)cc1O [Compound 29, (1R,2R,4S)-2″-Methoxy-5-methyl-2-(prop-1-en-2-yl)-1,2,3,4-tetrahydro-[1,1′:4′,1″-terphenyl]-2″,4,6′-triol]	35.0 ± 2.6 mA	70.5 ± 1.3 mA	32	166
C=C(C)[C@@H]1C[C@H](O)C(C)=C[C@H]1c1c(O)cc(-c2ccc(F)c(OC)c2)cc1O [Compound 30, (1R,2R,4S)-4″-Fluoro-3″-methoxy-5-methyl-2-(prop-1-en-2-yl)-1,2,3,4-tetrahydro-[1,1′:4′,1″-terphenyl]-2′,4,6′-triol]	43.0 ± 1.9 mA	>131 mA	62	> 394
C=C(C)[C@@H]1C[C@H](O)C(C)=C[C@H]1c1c(O)cc(-c2cccc(OC(F)F)c2)cc1O [Compound 31, (1R,2R,4S)-3″-(Difluoromethoxy)-5-methyl-2-(prop-1-en-2-yl)-1,2,3,4-tetrahydro-[1,1′:4′,1″-terphenyl]-2′,4,6′-triol]	33.0 ± 1.5 mA	79.5 ± 1.3 mA	25	200
C=C(C)[C@@H]1C[C@H](O)C(C)=C[C@H]1c1c(O)cc(-c2ccc(OC)cc2)cc1O [Compound 33, (1R,2R,4S)-4″-Methoxy-5-methyl-2-(prop-1-en-2-yl)-1,2,3,4-tetrahydro-[1,1′:4′,1″-terphenyl]-2′,4,6′-triol]	38.8 ± 1.4 mA	79.5 ± 0.9 mA	47	200
C=C(C)[C@@H]1C[C@H](O)C(C)=C[C@H]1c1c(O)cc(-c2cccnc2OC)cc1O [Compound 35, (1′R,2′R,4′S)-4-(2-Methoxypyridin-3-yl)-5′-methyl-2′-(prop-1-en-2-yl)-1′,2′,3′,4′-tetrahydro-[1,1′-biphenyl]-2,4′,6-triol]	38.0 ± 1.9 mA	>131.0 mA	62	457
C=C(C)[C@@H]1C[C@H](O)C(C)=C[C@H]1c1c(O)cc(-c2ccc3c(c2)OCO3)cc1O [Compound 41, (1′R,2′R,4′S)-4-(Benzo[d][1,3]dioxol-5-yl)-5′-methyl-2′-(prop-1-en-2-yl)-1′,2′,3′,4′-tetrahydro-[1,1′-biphenyl]-2,4′,6-triol]	50.5 ± 0.7 mA	>131.0 mA	91	> 394
C=C(C)[C@@H]1C[C@H](O)C(C)=C[C@H]1c1c(O)cc(-c2cccc3c2OCO3)cc1O [Compound 42, (1′R,2′R,4′S)-4-(Benzo[d][1,3]dioxol-4-yl)-5′-methyl-2′-(prop-1-en-2-yl)-1′,2′,3′,4′-tetrahydro-[1,1′-biphenyl]-2,4′,6-triol]	–	>131.0 mA	–	457
C=C(C)[C@@H]1C[C@H](O)C(C)=C[C@H]1c1c(O)cc(CCC)c(F)c1O [Compound 45, (1′R,2′R,4′S)-3-fluoro-5′-methyl-2′-(prop-1-en-2-yl)-4-propyl-1′,2′,3′,4′-tetrahydro-[1,1′-biphenyl]-2,4′,6-triol]	35.5 +/− 0.5 mA	–	58	–
